Assay results taken from patent US7138361B2, “Herbicidal heterocycles” (E. I. du Pont de Nemours and Company, priority 2000, dated 2006).

Assays:
Assay type in all cases: in vivo
[1] = system: crabgrass (Digitaria sanguinalis); assay: Test B preemergence
How it was run: (§1)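 Greenhouse test: chemicals are formulated in a surfactant-containing non-phytotoxic solvent and applied either preemergence to planted seeds or postemergence to plants 2 to 18 cm tall. Response is rated visually versus controls after 13 to 15 days, 0 meaning no effect and 100 complete control.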

[2] = system: velvetleaf (Abutilon theophrasti); assay: Test B preemergence
How it was run: as §1

corn (Zea mays) [3] = assay: Test B preemergence
How it was run: as §1

[4] = system: barnyardgrass (Echinochloa crus-galli); assay: Test B preemergence
How it was run: as §1

[5] = system: giant foxtail (Setaria faberii); assay: Test B preemergence
How it was run: as §1

rice (Oryza saliva) [6] = assay: Test B preemergence
How it was run: as §1

[7] = system: cocklebur (Xanthium strumarium); assay: Test B preemergence
How it was run: as §1

[8] = system: lambsquarters (Chenopodium album); assay: Test B preemergence; conditions: scale 0 to 100, 0 no effect, 100 complete control
How it was run: as §1

[9] = system: Surinam grass (Brachiaria decumbens); assay: Test B preemergence
How it was run: as §1

[10] = system: morning glory (Ipomoea hederacea); assay: Test B preemergence
How it was run: as §1

[11] = system: pigweed (Amaranthus retroflexus); assay: Test B preemergence
How it was run: as §1

[12] = system: smallflower flatsedge (Cyperus difformis); assay: Test B flooded paddy test; conditions: Rate 1000 g/ha, scale of 0 to 100 where 0 is no effect and 100 is complete control, visually evaluated after 13 to 15 days
Method: (§2) At the same time, plants selected from these crop and weed species and also blackgrass (Alopecurus myosuroides), wheat (Triticum aestivum) and wild oat (Avena fatua) were treated with postemergence applications of test chemicals formulated in the same manner. Plants ranged in height from 2 to 18 cm (1- to 4-leaf stage) for postemergence treatments. Plant species in the flooded paddy test consisted of rice (Oryza saliva), smallflower flatsedge (Cyperus difformis), duck salad (Heteranthera limosa) and barnyardgrass (Echinochloa crus-galli) grown to the 2-leaf stage for testing. Treated plants and controls were maintained in a greenhouse for 13 to 15 days, after which time all species were compared to controls and visually evaluated. Plant response ratings, summarized in Table B, are based on a scale of 0 to 100 where 0 is no effect and 100 is complete control. A dash (-) response means no test result.

[13] = system: barnyardgrass (Echinochloa crus-galli); assay: Test B flooded paddy test; conditions: Rate 1000 g/ha, scale of 0 to 100 where 0 is no effect and 100 is complete control, visually evaluated after 13 to 15 days
Method: as §2

rice (Oryza saliva) [14] = assay: Test B flooded paddy test; conditions: Rate 1000 g/ha, scale of 0 to 100 where 0 is no effect and 100 is complete control, visually evaluated after 13 to 15 days
Method: as §2

[15] = system: duck salad (Heteranthera limosa); assay: Test B flooded paddy test; conditions: Rate 1000 g/ha, scale of 0 to 100 where 0 is no effect and 100 is complete control, visually evaluated after 13 to 15 days
Method: as §2

[16] = system: crabgrass (Digitaria sanguinalis); assay: Test B postemergence; conditions: 13 to 15 days
How it was run: as §1

[17] = system: blackgrass (Alopecurus myosuroides); assay: Test B postemergence; conditions: 13 to 15 days
How it was run: as §1

[18] = system: velvetleaf (Abutilon theophrasti); assay: Test B postemergence; conditions: 13 to 15 days
How it was run: as §1

corn (Zea mays) [19] = assay: Test B postemergence; conditions: 13 to 15 days
How it was run: as §1

[20] = system: barnyardgrass (Echinochloa crus-galli); assay: Test B postemergence; conditions: 13 to 15 days
How it was run: as §1

[21] = system: wheat (Triticum aestivum); assay: Test B postemergence; conditions: 13 to 15 days
How it was run: as §1

[22] = system: giant foxtail (Setaria faberii); assay: Test B postemergence; conditions: 13 to 15 days
How it was run: as §1

wild oat (Avena fatua) = assay: Test B postemergence; conditions: 13 to 15 days
How it was run: as §1

[23] = system: cocklebur (Xanthium strumarium); assay: Test B postemergence; conditions: 13 to 15 days
How it was run: as §1

[24] = system: lambsquarters (Chenopodium album); assay: Test B postemergence; conditions: 13 to 15 days
How it was run: as §1

[25] = system: Surinam grass (Brachiaria decumbens); assay: Test B postemergence; conditions: 13 to 15 days
How it was run: as §1

[26] = system: morning glory (Ipomoea hederacea); assay: Test B postemergence; conditions: 13 to 15 days
How it was run: as §1

[27] = system: pigweed (Amaranthus retroflexus); assay: Test B postemergence; conditions: 13 to 15 days
How it was run: as §1

[28] = Preemergence, Rate 500 g/ha, scale 0 to 100, 0 no effect, 100 complete control
[29] = preemergence, Rate 125 g/ha, scale 0 to 100, 0 no effect, 100 complete control
[30] = Rate 125 g/ha, scale 0 (no effect) to 100 (complete control)
[31] = Rate 500 g/ha, scale 0 to 100, 0 is no effect, 100 is complete control
[32] = preemergence, Rate 125 g/ha, scale of 0 to 100 where 0 is no effect and 100 is complete control, 13 to 15 days

CC(C)(C)c1ccn(C2C(=O)N(c3cccc(C(F)(F)F)c3)C[S+]2[O-])n1 (centres unmarked) [Compound 29]
Plant response rating, Crabgrass [1, 28]: 0 | Plant response rating, Crabgrass [1, 29]: 0 | Plant response rating, Velvetleaf [2, 28]: 20 | Plant response rating, Corn (corn (Zea mays) [3]; [28]): 0 | Plant response rating, Corn (corn (Zea mays) [3]; [29]): 0 | Plant response rating, Barnyardgrass [4, 28]: 20 | Plant response rating, Barnyardgrass [4, 29]: 0 | Plant response rating, Foxtail, Giant [5, 28]: 0 | Plant response rating, Foxtail, Giant [5, 29]: 0 | Plant response rating, Rice (rice (Oryza saliva) [6]; [28]): 0 | Plant response rating, Cocklebur [7, 28]: 0 | Plant response rating, Cocklebur [7, 29]: 0 | Plant response rating, Lambsquarters ([8]; Preemergence, Rate 500 g/ha): 100 | Plant response rating, Lambsquarters ([8]; preemergence, Rate 125 g/ha): 0 | Plant response rating, Surinam grass [9, 28]: 0 | Plant response rating, Surinam grass [9, 29]: 0 | Plant response rating, Morningglory [10, 28]: 30 | Plant response rating, Pigweed [11, 28]: 70 | Plant response rating, Flatsedge [12]: 30 | Plant response rating, Barnyardgrass [13]: 0 | Plant response rating, Rice (rice (Oryza saliva) [14]): 0 | Plant response rating, Ducksalad [15]: 0 | Plant response rating, Crabgrass [16, 30]: 0 | Plant response rating, Crabgrass [16, 31]: 50 | Plant response rating, Blackgrass [17, 30]: 0 | Plant response rating, Blackgrass [17, 31]: 0 | Plant response rating, Velvetleaf [18, 30]: 0 | Plant response rating, Velvetleaf [18, 31]: 20 | Plant response rating, Corn (corn (Zea mays) [19]; [30]): 0 | Plant response rating, Corn (corn (Zea mays) [19]; [31]): 0 | Plant response rating, Barnyardgrass [20, 30]: 0 | Plant response rating, Barnyardgrass [20, 31]: 0 | Plant response rating, Wheat [21, 30]: 0 | Plant response rating, Wheat [21, 31]: 0 | Plant response rating, Foxtail, Giant [22, 30]: 0 | Plant response rating, Foxtail, Giant [22, 31]: 0 | Plant response rating, Wild Oat (wild oat (Avena fatua); [30]): 0 | Plant response rating, Wild Oat (wild oat (Avena fatua); [31]): 0 | Plant response rating, Cocklebur [23, 30]: 0 | Plant response rating, Cocklebur [23, 31]: 0 | Plant response rating, Lambsquarters [24, 30]: 0 | Plant response rating, Lambsquarters [24, 31]: 20 | Plant response rating, Surinam grass [25, 30]: 0 | Plant response rating, Surinam grass [25, 31]: 0 | Plant response rating, Morningglory [26, 30]: 0 | Plant response rating, Morningglory [26, 31]: 0 | Plant response rating, Pigweed [27, 30]: 30 | Plant response rating, Pigweed [27, 31]: 30

CCOc1ccn(C2CCN(c3cccc(C(F)(F)F)c3)C2=O)n1 (centres unmarked) [Compound 61]
Plant response rating, Crabgrass [1, 28]: 0 | Plant response rating, Crabgrass [1, 32]: 0 | Plant response rating, Velvetleaf [2, 28]: 0 | Plant response rating, Velvetleaf [2, 32]: 0 | Plant response rating, Corn (corn (Zea mays) [3]; [28]): 0 | Plant response rating, Corn (corn (Zea mays) [3]; [32]): 0 | Plant response rating, Barnyardgrass [4, 28]: 0 | Plant response rating, Barnyardgrass [4, 32]: 0 | Plant response rating, Foxtail, Giant [5, 28]: 0 | Plant response rating, Foxtail, Giant [5, 32]: 0 | Plant response rating, Rice (rice (Oryza saliva) [6]; [28]): 0 | Plant response rating, Rice (rice (Oryza saliva) [6]; [32]): 0 | Plant response rating, Cocklebur [7, 28]: 0 | Plant response rating, Cocklebur [7, 32]: 0 | Plant response rating, Surinam grass [9, 28]: 0 | Plant response rating, Surinam grass [9, 32]: 0 | Plant response rating, Morningglory [10, 28]: 0 | Plant response rating, Morningglory [10, 32]: 0 | Plant response rating, Pigweed [11, 28]: 0 | Plant response rating, Pigweed [11, 32]: 0 | Plant response rating, Flatsedge [12]: 20 | Plant response rating, Barnyardgrass [13]: 0 | Plant response rating, Rice (rice (Oryza saliva) [14]): 0 | Plant response rating, Ducksalad [15]: 30 | Plant response rating, Crabgrass [16, 30]: 0 | Plant response rating, Crabgrass [16, 31]: 0 | Plant response rating, Blackgrass [17, 30]: 0 | Plant response rating, Blackgrass [17, 31]: 0 | Plant response rating, Velvetleaf [18, 30]: 0 | Plant response rating, Velvetleaf [18, 31]: 0 | Plant response rating, Corn (corn (Zea mays) [19]; [30]): 0 | Plant response rating, Corn (corn (Zea mays) [19]; [31]): 0 | Plant response rating, Barnyardgrass [20, 30]: 0 | Plant response rating, Barnyardgrass [20, 31]: 0 | Plant response rating, Wheat [21, 30]: 0 | Plant response rating, Wheat [21, 31]: 0 | Plant response rating, Foxtail, Giant [22, 30]: 0 | Plant response rating, Foxtail, Giant [22, 31]: 0 | Plant response rating, Wild Oat (wild oat (Avena fatua); [30]): 0 | Plant response rating, Wild Oat (wild oat (Avena fatua); [31]): 0 | Plant response rating, Cocklebur [23, 30]: 0 | Plant response rating, Cocklebur [23, 31]: 0 | Plant response rating, Lambsquarters [24, 30]: 0 | Plant response rating, Lambsquarters [24, 31]: 0 | Plant response rating, Surinam grass [25, 30]: 0 | Plant response rating, Surinam grass [25, 31]: 0 | Plant response rating, Morningglory [26, 30]: 0 | Plant response rating, Morningglory [26, 31]: 0 | Plant response rating, Pigweed [27, 30]: 0 | Plant response rating, Pigweed [27, 31]: 0
